Results from patent US20130143742A1, “HERBICIDAL COMPOSITION” (SUMITOMO CHEMICAL COMPANY, LIMITED, priority 2011, published 2013).
Structures can show the parent of a compound that is named as a salt.

Legend:
[1] = system: barnyardgrass (Echinochloa crus-galli); experiment: Example 4: herbicidal activity, soil treatment, weed sown 9 days after treatment; type: in vivo; conditions: score 0 to 100; 1,000 g/ha; 29 days after the chemical treatment (20 days after sowing)
Description: (§1) Plastic pots each having a diameter of 24 cm and a height of 21 cm were filled with the soil. A water dilution of a glyphosate potassium salt (liquid formulation containing 48% of a glyphosate potassium salt, manufactured by Nissan Chemical Industries, Ltd. under the trade name of Roundup Maxload) was prepared. A mixed solution of a water dilution of a flumioxazin water dispersible granule (water dispersible granule containing 51% of flumioxazin, manufactured by Valent USA Corporation under the trade name of Valor SX) and a water dilution of a saflufenacil was prepared. A mixed solution of a water dilution of a glyphosate potassium salt, a water dilution of a flumioxazin water dispersible granule and a water dilution of Saflufenacil was prepared. Each of the solutions thus prepared above was uniformly sprayed over the pots using a sprayer in an amount of 500 L/ha. The water dilution of saflufenacil was prepared by dissolving a predetermined amount of saflufenacil in acetone containing 2% (w/v) of Tween 20 (surfactant, manufactured by Tokyo Chemical Industry Co., Ltd.) and diluting the solution with water so that the acetone concentration will be 10 volume %.
(§2) After a chemical treatment, the pots were put in a greenhouse. […]
Seedlings of the plant were cultivated in the greenhouse and, 29 days after the chemical treatment (20 days after sowing), herbicidal activity was evaluated.

[2] = system: ivyleaf morningglory (Ipomoea hederacea); experiment: Example 3: herbicidal activity, soil treatment, weed sown 21 days after treatment; type: in vivo; conditions: score 0 to 100; 20 g/ha; 45 days after the chemical treatment (24 days after sowing)
Description: as §1, with “of saflufenacil” for “of a glyphosate potassium salt (liquid formulation containing 48% of a glyphosate potassium salt, manufactured by Nissan Chemical Industries, Ltd. under the trade name of Roundup Maxload)”, “a glyphosate potassium salt (liquid formulation containing 48% of a glyphosate potassium salt, manufactured by Nissan Chemical Industries, Ltd. under the trade name of Roundup Maxload)” for “a saflufenacil”, “of saflufenacil,” for “of a glyphosate potassium salt,”, “of a glyphosate potassium salt” for “of Saflufenacil”
as §2
Seedling of the plant were cultivated in the greenhouse and, […] after the chemical treatment (24 days after sowing), herbicidal activity was evaluated.

| Structure (SMILES) | Herbicidal activity Barnyardgrass [1] | Herbicidal activity Ivyleaf morningglory [2] |
| --- | --- | --- |
| O=C(O)CNCP(=O)(O)O [Glyphosate potassium salt, glyphosate-potassium] | 0 | – |
| CC(C)N(C)S(=O)(=O)NC(=O)c1cc(-n2c(=O)cc(C(F)(F)F)n(C)c2=O)c(F)cc1Cl [Saflufenacil, N′-{2-chloro-4-fluoro-5-[1,2,3,6-tetrahydro-3-methyl-2,6-dioxo-4-(trifluoromethyl)pyrimidin-1-yl]benzoyl}-N-isopropyl-N-methylsulfamide] | – | 45 |
